The test system of test [1] is Schistosoma mansoni. Description: Antischistosomal activity against adult Schistosoma mansoni measured after 72 hrs by microscopic method. The test is classed as functional, organism-based.
The subject of test [2] is Schistosoma haematobium. Put plainly: Antischistosomal activity against adult Schistosoma haematobium assessed as reduction in worm viability at 100 uM measured after 4 hrs by microscopic method relative to control. The test is classed as functional.
In test [3] the test system is Schistosoma haematobium. Description: Antischistosomal activity against adult Schistosoma haematobium assessed as reduction in worm viability at 100 uM measured after 48 hrs by microscopic method relative to control. The test is classed as functional.
The test system of test [4] is Schistosoma mansoni. Description: Antischistosomal activity against Schistosoma mansoni infected in NMRI mouse assessed as worm burden reduction at 100 mg/kg, po administered as single dose relative to control. On the set-up: scale not given: the % may be the effect or the level left. The test is classed as functional.
Test [5] concerns L6. Description: Cytotoxicity against rat L6 cells measured after 72 hrs by alamar blue assay. The class given is functional, cell-based. The following applies: L6, 72 h. In general terms: Alamar Blue is a resazurin reagent that responds to reducing activity.
For test [6], the system named is Schistosoma mansoni. Description: Antischistosomal activity against adult Schistosoma mansoni assessed as worm mortality at 10 uM measured up to 72 hrs by microscopic method relative to control. The class given is functional. The following applies: time hrs <=72.
Test [7] has as its system Schistosoma mansoni. Put plainly: Antischistosomal activity against Schistosoma mansoni infected in NMRI mouse assessed as reduction in total worm burden at 400 mg/kg, po measured after 21 days relative to control. The test is classed as functional. The arrangement: scale not given: the % may be the effect or the level left. To be noted: time 21 day.
In test [8] the test system is Schistosoma mansoni. Description: Antischistosomal activity against Schistosoma mansoni NTS assessed as worm mortality at 10 uM measured up to 72 hrs by microscopic method relative to control. The class given is functional. The following applies: time hrs <=72.
In test [9] the test system is Schistosoma mansoni. Put plainly: Antischistosomal activity against Schistosoma mansoni infected in NMRI mouse assessed as reduction in female worm burden at 400 mg/kg, po measured after 21 days relative to control. To be noted: time 21 day. On the set-up: scale not given: the % may be the effect or the level left. The test is classed as functional.
The test system of test [10] is Schistosoma mansoni. Description: Antischistosomal activity against adult Schistosoma mansoni measured up to 72 hrs by microscopic method. The test is classed as functional, organism-based.
Test [11] concerns Schistosoma mansoni. Put plainly: Antischistosomal activity against Schistosoma mansoni LE larva at […] measured within 48 hrs by inverted microscopic method relative to control. The test is classed as functional. To be noted: dose 2.5 µg/ml.
For test [12], the system named is Schistosoma mansoni. Description: Antischistosomal activity against Schistosoma mansoni LE infected in BALb/C mouse assessed as reduction in worm burden at 400 mg/kg, po administered as single dose and measured after 15 days relative to control. The class given is functional. The arrangement: scale not given: the % may be the effect or the level left. To be noted: time 15 day.

Test [13] concerns Schistosoma mansoni. Put plainly: Antischistosomal activity against adult Schistosoma mansoni LE assessed as worm mortality measured after 96 hrs by inverted microscopic method. The test is classed as functional, organism-based.
The test system of test [14] is Schistosoma mansoni. Put plainly: Antischistosomal activity against adult Schistosoma mansoni LE assessed as worm mortality at 100 ug/ml measured after 96 hrs by inverted microscopic method relative to control. The test is classed as functional.
The test system of test [15] is Schistosoma mansoni. Description: Schistosomicidal-activity against Schistosoma mansoni infected in NIH-Swiss mouse assessed as reduction in skin staged worm burden at 10 mg/kg, ip administered daily for 5 consecutive days relative to control. On the set-up: scale not given: the % may be the effect or the level left. The test is classed as functional.
Test [16] concerns Schistosoma mansoni. Put plainly: schistosomicidal-activity against adult Schistosoma mansoni infected in NIH-Swiss mouse assessed as reduction in worm burden at 10 mg/kg, ip administered daily for 5 consecutive days relative to control. The class given is functional. On the set-up: scale not given: the % may be the effect or the level left. To be noted: time 5 day.
The subject of test [17] is Schistosoma mansoni. Put plainly: schistosomicidal-activity against Schistosoma mansoni infected in NIH-Swiss mouse assessed as reduction in liver-staged worm burden at 10 mg/kg, ip administered daily for 5 consecutive days relative to control. The class given is functional. On the set-up: scale not given: the % may be the effect or the level left.
The subject of test [18] is Schistosoma mansoni. Put plainly: Schistosomicidal-activity against adult Schistosoma mansoni incubated overnight followed by replacement of medium and measured on day 5 by stereomicroscopy. The test is classed as functional, organism-based. To be noted: 120 h.
Test [19] deals with Schistosoma mansoni. Description: microbe, parasite or virus in culture. The following applies: 72 h.
Description: Antischistosomal activity against Schistosoma mansoni incubated for 72 hrs by inverted microscopic method
Test [20] concerns Schistosoma mansoni. Description: Antischistosomal activity against adult Schistosoma mansoni Liberian at 10 uM measured after 48 hrs relative to control. The test is classed as functional.
Test [21] deals with Schistosoma mansoni. Put plainly: Antischistosomal activity against Schistosoma mansoni Liberian NTS at 10 uM measured after 24 hrs relative to control. The test is classed as functional.
The test system of test [22] is Schistosoma mansoni. Put plainly: Antischistosomal activity against adult Schistosoma mansoni Liberian at 10 uM measured after 24 hrs relative to control. The class given is functional.
Test [23] deals with Schistosoma haematobium. Description: Antischistosomal activity against Schistosoma haematobium at 10 uM measured after 72 hrs relative to control. The test is classed as functional.
In test [24] the test system is Schistosoma mansoni. Description: microbe, parasite or virus in culture. To be noted: Liberian, 72 h.
Description: Antischistosomal activity against Schistosoma mansoni Liberian NTS incubated for 72 hrs by microscopic method
The test system of test [25] is Schistosoma mansoni. Description: Antischistosomal activity against female Schistosoma mansoni Egyptian strain infected in BALB/c mouse assessed as reduction in total worm burden at 200 mg/kg, po measured after 2 weeks by scanning electron microscopy. The class given is functional. The arrangement: scale not given: the % may be the effect or the level left.
For test [26], the system named is Schistosoma mansoni. Put plainly: Antischistosomal activity against female Schistosoma mansoni Egyptian strain infected in BALB/c mouse assessed as reduction in male worm burden at 300 mg/kg, po measured after 2 weeks by scanning electron microscopy relative to control. The class given is functional. The arrangement: scale not given: the % may be the effect or the level left.

Test [27] concerns Schistosoma mansoni. Description: Antischistosomal activity against female Schistosoma mansoni Egyptian strain infected in BALB/c mouse assessed as reduction in female worm burden at 300 mg/kg, po measured after 2 weeks by scanning electron microscopy relative to control. The class given is functional. On the set-up: scale not given: the % may be the effect or the level left.

For test [28], the system named is Schistosoma mansoni. Put plainly: Antischistosomal activity against Schistosoma mansoni LE infected in BALB/c mouse assessed as reduction in worm burden at 10 mg/kg, ip administered for 5 consecutive days starting from day 1 post infection by microscopic method relative to control. The class given is functional. The arrangement: scale not given: the % may be the effect or the level left.

Test [29] has as its system Schistosoma mansoni. Description: Antischistosomal activity against Schistosoma mansoni LE infected in BALB/c mouse assessed as reduction in worm burden at 10 mg/kg, ip administered for 5 consecutive days starting from day 23 by microscopic method relative to control. The test is classed as functional. On the set-up: scale not given: the % may be the effect or the level left.

The test system of test [30] is Schistosoma mansoni. Put plainly: Antischistosomal activity against female Schistosoma mansoni Egyptian strain infected in BALB/c mouse assessed as reduction in total worm burden at 300 mg/kg, po measured after 2 weeks by scanning electron microscopy relative to control. The class given is functional. On the set-up: scale not given: the % may be the effect or the level left.

The test system of test [31] is Schistosoma mansoni. Put plainly: Antischistosomal activity against female Schistosoma mansoni Egyptian strain infected in BALB/c mouse assessed as reduction in worm burden at 200 mg/kg, po measured after 2 weeks. The class given is functional. The arrangement: scale not given: the % may be the effect or the level left.
Test [32] relates to Schistosoma mansoni. Put plainly: Antischistosomal activity against adult Schistosoma mansoni LE assessed as reduction in worm vitality measured every 24 hrs by inverted microscopy. The test is classed as functional, organism-based.
The test system of test [33] is Schistosoma mansoni. Description: Antischistosomal activity against adult Schistosoma mansoni LE assessed as worm mortality at 100 ug/ml incubated for 24 hrs by inverted microscopic method relative to control. The test is classed as functional.
The subject of test [34] is Schistosoma mansoni. Description: Antischistosomal activity against Schistosoma mansoni LE schistosomula assessed as reduction in worm vitality measured every 24 hrs by inverted microscopy. The class given is functional, organism-based.
For test [35], the system named is Schistosoma japonicum. Description: Antischistosomal activity against Schistosoma japonicum at 10 uM incubated for 72 hrs by inverted microscopic method relative to control. The class given is functional.
Test [36] has as its system Schistosoma mansoni. Description: Antischistosomal activity against Schistosoma mansoni BH infected in Balb/c mouse assessed as reduction in worm burden at 400 mg/kg, po measurement after 2 weeks. On the set-up: scale not given: the % may be the effect or the level left. The class given is functional.

`CC(C)N(Cc1ccccc1)CC1CCc2cc(CCl)c([N+](=O)[O-])cc2N1` (stereo unspecified): the figures for the IC50 in [1] and in test [5] were 11.1 µM and greater than 73 µM, respectively. In addition, the Activity is on record as 75% in test [2], 100% in test [3] and 76.1% in [4].
As for `CCNCCNc1cc(-c2ccc(Cl)cc2)c(C#N)c2nc3ccccc3n12`, the mortality (as a rule, the share of the test organisms that died) at 10 µM in test [6] was greater than 60%; in [8], greater than 70%. Besides, the Activity in test [7] amounted to 58.7%; in test [9], 61.3%. In addition, half-maximal inhibition in [10] (IC50) required 2.44 µM.
`O=C1c2ccccc2C(=O)N1Nc1nc(-c2ccc(Cl)cc2Cl)cs1` came in with a mortality at […] in [11] of 100%. The Activity in test [12] is on record as 85%. The EC50 (as a rule, the concentration giving half of the maximal effect) in test [13] came out at 50.6 µM. Also, the mortality at 100 µg/mL in test [14] was found to be 100%.
In the case of `N#Cc1c(-c2ccccc2)no[n+]1[O-]`, the results for the Activity in test [15], in test [16] and in test [17] were 99%, 94% and 88%, respectively.
In [18], `O=C(C1CCCCC1)N1CC(=O)N2CCc3sccc3C2C1` (stereo unspecified) gave an EC50 of 0.9 µM.
In the case of `CN1CCN(CCCOc2ncc(Nc3ncc(-c4ccc(C(F)(F)F)c(F)c4)nc3C(N)=O)cn2)CC1`, the IC50 (usually the concentration at which inhibition is half-maximal) in test [19] stood at 3 µM; in test [24], 0.8 µM. The Activity is given as 100% in test [20], 100% in test [21], 70% in test [22] and 100% in test [23].
As to `CC(C)Oc1ccc(-c2ccc(-c3nc4ccccc4[nH]3)s2)cc1`, the Activity in test [25] stood at 44%; in test [26], 34.6%; in test [27], 76.5%; in test [28], 34.6%; in [29], 55.3%; in [30] it was 55.3%. Also, in test [31], the Activity was determined as 66%.
As for `Cc1ccc(-c2cs/c(=N/N=C/CN3C(=O)c4ccccc4C3=O)[nH]2)cc1`, the EC50 in test [32] was 38.7 µM; in test [34], 9.77 µM. In addition, the mortality at 100 µg/mL in [33] came out at 100%.
`CCCCCCCCCCOc1cc2c(O)c(C(=O)NCCN(CC)CC)cnc2cc1OCC`: the Activity in test [35] is 100%.
For `COc1cc(O)ccc1C(=O)/C=C/c1ccccc1`, the Activity in [36] was determined as 31.8%.

For the origin of these results see ChEMBL document CHEMBL4811216, “Chemotherapy for human schistosomiasis: how far have we come? What's new? Where do we go from here?” (RSC Med Chem, 2020).
